We go through 1 molecule from patent US20100310478A1, “SUBSTITUTED BENZOQUINONES AND HYDROQUINONES IN THE TREATMENT OF PERIODONTAL DISEASES” (priority 2007, published 2010).

Experiment [1] has as its system P. gingivalis NCTC 11834. Kind of experiment: Minimum bactericidal concentration (MBC) assay. The format is cell-based, Porphyromonas gingivalis. The conditions noted are these: Tables 1, 2. As for the experimental part: P. gingivalis strains were cultured and maintained on Wilkins-Chalgren Anaerobe Medium (agar and broth) at pH 7.0; all cultures were incubated anaerobically at 37° C. for 5-7 days.
(§1) This assay, normally carried out after an MIC assay, determines the minimum concentration of a compound that is lethal to the micro-organism being tested.
(§2) These samples were then individually sub-cultured on antibiotic-free agar medium, under the incubation conditions described above. Following incubation they were examined visually for microbial growth.
(§3) The ratio of MIC to MBC should ideally be as close to 1 as possible.

For experiment [2], the system named is P. gingivalis NCTC 11834. Kind of experiment: Minimum inhibitory concentration (MIC) assay. The format is cell-based, Porphyromonas gingivalis. The conditions noted are these: Tables 1, 2. The procedure:
(§4) P. gingivalis strains were cultured and maintained on Wilkins-Chalgren Anaerobe Medium (agar and broth) at pH 7.0; all cultures were incubated anaerobically at 37° C. for 5-7 days. This is a standard international method for quantitatively assessing the antimicrobial activity of a compound in a liquid medium. The method used a sterile 96-well microtitre plate, capable of holding about 200 μl of liquid per well. […] The culture medium was as described above. The wells were inoculated with a liquid suspension of freshly grown micro-organism and incubated under the conditions described above. After incubation, the microtitre plate was examined visually (with the aid of a light box) for cloudiness in each well, which would indicate microbial growth. The MIC value was recorded as the lowest concentration of test compound required to inhibit microbial growth, ie the lowest concentration for which the liquid in the well remained clear. The assays were conducted in duplicate (minimum) and included both negative (culture medium with no micro-organisms) and positive (culture medium plus diluting solvent plus micro-organism) controls.

The subject of experiment [3] is Klebsiella pneumoniae ATCC 700603. The experiment in a line: MBC assay. The format is cell-based. As for the experimental part: as §1, §2
Experiment [4] concerns Pseudomonas aeruginosa ATCC 27853. The experiment in a line: MBC assay. The format is cell-based. The procedure: as §1, §2
Experiment [5] has as its system Escherichia coli ATCC 25922. The experiment in a line: MBC assay. It is filed as cell-based. The procedure: as §1, §2
The test system of experiment [6] is Acinetobacter baumanni ATCC 19606. The experiment in a line: MBC assay. It is filed as cell-based. The procedure:
as §1, §2

The subject of experiment [7] is P. gingivalis NCTC 11834. The experiment in a line: Short-contact kill assay (SCKA). The format is cell-based, Porphyromonas gingivalis. The conditions noted are these: 0.2% (w/v). As for the experimental part:
(§5) This quantitative assay was designed to determine the relative potency of a test compound or combination of test compounds to kill a test micro-organism over a short-contact time period (up to 5 minutes).
(§6) Samples from a culture of micro-organisms (ca. 1×10^8 cfu/ml) prepared in phosphate buffered saline (PBS) containing the relevant test compound(s) were taken at timed intervals (between 0 and 5 minutes), 10-fold serially diluted in PBS and then inoculated onto agar plates in triplicate. A culture containing only the solvent(s) used to dissolve the test compound(s) acted as a control for the assay (maximum solvent load 2.5% v/v).
(§7) The plates were then incubated as described above and subsequently examined visually for growth. Colonies were counted at an appropriate serial dilution (5-50 individual colonies visible) with the aid of a colony counter. These measurements were then converted to numbers of colony forming units (cfu), using the formula: cfu/ml=number of colonies×serial dilution factor×100 (as only a […] was taken).
(§8) These cfu values were then converted into […] values and plotted graphically against time of sample removal.
(§9) At each time point, samples were assessed in triplicate; the final cfu/ml value was an average (mean) of the three readings.
(§10) SCKAs, as described above, were carried out using TBHQ as the test compound. Chlorhexidine was used as a positive control and 2.5% ethanol as a negative control.
(§11) For the SCKA experiments, the TBHQ and chlorhexidine were both tested at concentrations of 0.2% w/v. The TBHQ was dissolved in ethanol and the chlorhexidine in distilled water. All the experiments were conducted in triplicate.

The subject of experiment [8] is P. gingivalis 381 biofilm. The experiment in a line: Biofilm disruption assay on hydroxyapatite discs. The format is cell-based, Porphyromonas gingivalis. To be noted: 0.2% (w/v). The procedure: (§12) This assay was designed to determine quantitatively the relative potency of a test compound to disrupt (effectively kill) biofilms formed by a test organism on hydroxyapatite (HA) discs. Biofilms were formed on sterile dense ceramic HA discs 7 mm diameter×1.8 mm thick (Clarkson Chromatography) by placing the discs in the appropriate liquid media (as described above) inoculated with the test organism (0.5×10^8 cfu/ml). The HA discs were then incubated at 37° C. for ˜48 hours in a 5% CO2 atmosphere (for S. mutans ATCC 25175) or ˜96 hours under anaerobic conditions (for P. gingivalis 381). Following the incubation period the supernatant was removed from the wells containing the HA discs and the discs were washed x3 with fresh media to ensure all planktonic cells were removed. The HA discs were then transferred to sterile bijoux bottles containing 1 ml of phosphate buffered saline (PBS) plus test compound(s) at the required concentration. After a set time period (usually 2 and/or 5 min), the HA disc was transferred to another sterile bijoux containing 1 ml of fresh growth media. Adherent cells were then harvested by vigorous vortexing for 2 minutes. A sample was then taken, serially diluted 10-fold in fresh growth media and inoculated onto agar plates in triplicate. Untreated HA discs, and HA discs added to PBS containing only the solvents used to dissolve the test compound(s), acted as controls. The plates were then incubated as described above and subsequently examined visually for growth. Colonies were counted at an appropriate serial dilution (5-50 individual colonies visible) with the aid of a colony counter. These measurements were then converted to numbers of colony forming units (cfu), using the formula: cfu/ml=number of colonies×serial dilution factor×100 (as only a 10 μl sample was taken). These cfu values were then converted into log10 values and plotted graphically against time of sample removal. At each time point, samples were assessed in triplicate; the final cfu/ml value was an average (mean) of the three readings. Biofilm disruption assays, as described above, were carried out using TBHQ as the test compound and chlorhexidine as a positive control. The negative control was 5% ethanol. For these experiments, the TBHQ and chlorhexidine were tested at concentrations of 0.2% w/v. The TBHQ was dissolved in ethanol and the chlorhexidine in distilled water. All the experiments were conducted in triplicate.

Experiment [9] has as its system S. mutans ATCC 25175 biofilm. Kind of experiment: Biofilm disruption assay on hydroxyapatite discs. The format is cell-based, Streptococcus mutans. The conditions noted are these: 0.2% (w/v). As for the experimental part:
as §12

Experiment [10] has as its system S. mutans ATCC 25175. The experiment in a line: Minimum inhibitory concentration (MIC) assay. It is filed as cell-based, Streptococcus mutans. The conditions noted are these: Tables 1, 2. The procedure: as §4, with “S. mutans was” for “P. gingivalis strains were”, “7.0 supplemented with 1 g/L glucose;” for “7.0;”, “incubated” for “incubated anaerobically”, “48 hours in an atmosphere containing 5% CO2. For the formation of biofilms in biofilm disruption assays, however, S. mutans was grown in brain-heart infusion broth supplemented with 5% sucrose.” for “5-7 days.”

Experiment [11] deals with S. mutans ATCC 25175. Kind of experiment: Minimum bactericidal concentration (MBC) assay. The format is cell-based, Streptococcus mutans. To be noted: Tables 1, 2. As for the experimental part:
S. mutans was cultured and maintained on Wilkins-Chalgren Anaerobe Medium (agar and broth) at pH 7.0 supplemented with 1 g/L glucose; all cultures were incubated at 37° C. for 48 hours in an atmosphere containing 5% CO2. For the formation of biofilms in biofilm disruption assays, however, S. mutans was grown in brain-heart infusion broth supplemented with 5% sucrose.
as §1, §2, §3

In experiment [12] the test system is S. mutans ATCC 25175. The experiment in a line: Short-contact kill assay (SCKA). It is filed as cell-based, Streptococcus mutans. The conditions noted are these: 0.2% (w/v). As for the experimental part:
as §5, §6, §7, §8, §9, §10, §11

[13] abbreviates: 1 min, 3.00 = limit of detection.

In brackets after ≈: the same amount, converted by molar mass.

Regarding `CC(C)(C)c1cc(O)ccc1O` [TBHQ, t-butyl-p-hydroquinone], the MBC (as a rule, the lowest tested concentration that kills the bacteria rather than only halting them) against P. gingivalis NCTC 11834 [1] was 0.98 µg/mL (≈ 5.9 µM); in [3] it was 1000 µg/mL (≈ 6020 µM); in experiment [4] it was greater than 1000 µg/mL; in experiment [5] it was 500 µg/mL (≈ 3010 µM); in experiment [6], 500 µg/mL (≈ 3010 µM); in the experiment on S. mutans ATCC 25175 [11], 31.25 µg/mL (≈ 188 µM). Also, the MIC/MBC ratio with P. gingivalis NCTC 11834 [1] worked out at 0.5; with S. mutans ATCC 25175 [11], 1. The MIC – broadly, the lowest concentration that inhibits growth of the organism – was 0.49 µg/mL (≈ 2.95 µM) in the experiment on P. gingivalis NCTC 11834 [2] and 31.25 µg/mL (≈ 188 µM) with S. mutans ATCC 25175 [10]. Besides, the Viable cell counts is 9.32 Log10 cfu/ml in the experiment on P. gingivalis NCTC 11834 [7] (0 min); 6.50 Log10 cfu/ml with P. gingivalis NCTC 11834 [7] (0.5 min); “*3.00 Log10 cfu/ml” with P. gingivalis NCTC 11834 [7] (setting [13]); 7.74 Log10 cfu/ml in experiment [8] (0 min); 6.52 Log10 cfu/ml in experiment [8] (2 min); “*2.00 Log10 cfu/ml” in experiment [8] (5 min, 2.00 = limit of detection). Moreover, the Viable cell counts in experiment [9] (0 min) was 6.36 Log10 cfu/ml; in experiment [9] (2 min), 6.52 Log10 cfu/ml; in experiment [9] (5 min), 6.24 Log10 cfu/ml; in the experiment with S. mutans ATCC 25175 [12] (0 min), 7.64 Log10 cfu/ml; in the experiment with S. mutans ATCC 25175 [12] (0.5 min, 3.00 = limit of detection), 7.56 Log10 cfu/ml; with S. mutans ATCC 25175 [12] (setting [13]), 7.36 Log10 cfu/ml.
